# Experimental data published in patent publication US20230064324A1, “NEW USES FOR STEVIOL” (SUNTORY HOLDINGS LIMITED, priority 2019, published 2023).
# How the values were obtained:
# CHOP [1] = assay: CHOP expression in pancreatic cells (βTC6) under endoplasmic reticulum stress (RT-PCR); assay type: cell-based, Mouse; details: pretreatment 4 h, tunicamycin 0.16 μM 24 h
# Procedure: (§1) The lysate was preserved at −80° C. until use.
# (§2) The internal standard gene used was GAPDH gene.
# [2] = test system: endoplasmic reticulum stress markers CHOP and GRP78; assay: Endoplasmic reticulum stress-suppressing effect in each type of cell (markers CHOP and GRP78), overall statement; assay type: cell-based; details: neuronal cells, adipocytes, hepatocytes, pancreatic cells; tunicamycin-induced; CHOP and GRP78 as index
# Procedure: Steviol was evaluated for its influence on endoplasmic reticulum stress in each type of cell by using endoplasmic reticulum stress markers CHOP and GRP78 as an index. The test cells used were neuronal cells (induced from PC12 cells), adipocytes (normal human subcutaneous preadipocytes, Cat. No. PT-5020, Lonza Group AG), hepatocytes (HepG2, Cat. No. JCRB1054, JCRB) and pancreatic cells (βTC6, ATCC® CRL-11506).
# 4PA (P21005, Sigma-Aldrich Co., LLC) was dissolved in a medium and then added at a predetermined concentration to a differentiation medium or a growth medium.
# After the completion of endoplasmic reticulum stress induction treatment, the expression levels of CHOP and GRP78 were measured to evaluate the degree of endoplasmic reticulum stress. First, FasteLane lysate (RNA) was prepared for RNA extraction using FastLane Cell Probe kit (Cat. No. 216413, Qiagen N.V.). After removal of the medium, each well was washed by the addition of 125 μL of Buffer FCW and its immediate removal. Then, 50 μL of Cell processing mix was added to each well, followed by incubation at room temperature for 5 minutes to prepare FasteLane lysate. […]
# RT-PCR reaction was performed under conditions of 50° C. for 30 minutes, 95° C. for 15 minutes, and (94° C. for 15 seconds and 60° C. for 60 seconds)×40 cycles. […] A relative expression level was calculated by the ΔΔCt method. […]
# CHOP [3] = assay: CHOP expression in neuronal cells under endoplasmic reticulum stress (RT-PCR); assay type: cell-based, Rat; details: pretreatment 1 h, tunicamycin 0.16 μM 24 h
# Procedure: (§3) Neuronal cells were prepared as follows. PC12 cells were reconstituted by seeding at 2×10^6 cells/flask to a collagen IV-coated flask, and precultured for 3 days in the growth medium in a CO2 incubator.
# as §1, §2
# PC12 cells (clone HS) = assay: Cytotoxicity of steviol to PC12 cells (WST-8 viable cell count); assay type: cell-based, Rat; details: for Relative viable cell count (%): 3 days, Control=100%
# Procedure: PC12 cells (clone HS, Cat. No. JCRB0266, JCRB) were precultured for 3 days in a collagen IV-coated flask (T-75, Corning Inc., Cat. No. 354523) using a growth medium (DMEM medium (low glucose, Cat. No. 08456-65, Nacalai Tesque, Inc.) supplemented with 10% FBS (Cat. No. 172012, Sigma-Aldrich Co., LLC), 10% horse serum (Cat. No. 16050-122, Thermo Fisher Scientific Inc.), and 1% penicillin-streptomycin) in a CO2 incubator (37° C., 5% CO2; the same holds true for the description below). […] A vehicle control composed of a test medium supplemented with 0.1% DMSO (final concentration) was used as a negative control.
# GRP78 [4] = assay: GRP78 expression in pancreatic cells (βTC6) under endoplasmic reticulum stress (RT-PCR); assay type: cell-based, Mouse; details: pretreatment 4 h, tunicamycin 0.16 μM 24 h
# Procedure: as §1, §2
# GRP78 [5] = assay: GRP78 expression in neuronal cells under endoplasmic reticulum stress (RT-PCR); assay type: cell-based, Rat; details: pretreatment 24 h, tunicamycin 1.0 μM 24 h
# Procedure: as §3, §1, §2
# [6] = test system: neuronal cells (induced from PC12 cells); assay: Cell-protecting effect against tunicamycin-induced endoplasmic reticulum stress (WST-8); details: 1 μM tunicamycin
# Procedure: PC12 cells were precultured using the growth medium in a same manner as Example 3. The cells were detached using 0.25% trypsin-EDTA, seeded at 5,000 cells/100 μL/well to a collagen IV-coated 96-well plate (Cat. No. 354429, Corning) using the growth medium, and cultured overnight in a CO2 incubator. On the next day, the medium was replaced with 100 μL of the differentiation medium, and the cells were cultured for 2 days in a CO2 incubator to induce their differentiation into neuronal cells. […] IGF-1 (Cat. No. SRP4121, Sigma-Aldrich Co., LLC) was dissolved at 100 μg/mL in Nuclease Free Water and then added at 100 ng/mL to the differentiation medium.
# After the completion of endoplasmic reticulum stress induction treatment, viable cell count measurement was performed by the WST-8 method to evaluate damage on the cells by endoplasmic reticulum stress. Specifically, the medium of each well after culture was replaced with 200 μL of a differentiation medium supplemented with a 1/10 amount of viable cell count measurement reagent SF, and the cells were incubated in a CO2 incubator. 30 minutes later and 90 minutes later, absorbance (450 nm, reference wavelength: 630 nm) was measured using a plate reader (VARIOSKAN FLASH, Thermo Fisher Scientific Inc.), and absorbance difference per 60 minutes was regarded as a relative viable cell count.
# GRP78 [7] = assay: GRP78 expression in adipocytes under endoplasmic reticulum stress (RT-PCR); assay type: cell-based, Human; details: pretreatment 24 h, tunicamycin 0.65 μM 24 h
# Procedure: (§4) Adipocytes were prepared as follows. Normal human subcutaneous preadipocytes were reconstituted in a T75 flask using a growth medium (PBM-2 medium, Cat. No. PT-8002, Lonza, supplemented with 10% FBS, 2 mM L-glutamine, 50 μg/mL gentamycin, and 37 ng/mL amphotericin-B), and precultured for 3 days in a CO2 incubator (37° C., 5% CO2; the same holds true for the description below).
# as §1, §2
# CHOP [8] = assay: CHOP expression in adipocytes under endoplasmic reticulum stress (RT-PCR); assay type: cell-based, Human; details: pretreatment 24 h, tunicamycin 0.65 μM 24 h
# Procedure: as §4, §1, §2
# [9] = test system: neuronal cells (induced from PC12 cells); assay: Cytotoxicity of steviol to neuronal cells (differentiated PC12, WST-8); assay type: cell-based, Rat; details: for Relative viable cell count (%): 2 days, differentiated PC12, Control=100%
# Excerpt: PC12 cells (Cat. No. 88022401, ECACC) were precultured in a collagen IV-coated flask using the growth medium. […] A vehicle control composed of a test medium supplemented with 0.1% DMSO (final concentration) was used as a negative control.
smiles,measurement,setting,value
C=C1C[C@@]23CC[C@H]4[C@@](C)(CCC[C@@]4(C)C(=O)O)[C@@H]2CC[C@]1(O)C3 [Steviol],"Expression level of CHOP in pancreatic cells (relative to GAPDH, untreated=1)",CHOP [1]; steviol 6.25 μg/mL,2.56
same,"Expression level of CHOP in pancreatic cells (relative to GAPDH, untreated=1)",CHOP [1]; steviol 12.5 μg/mL,2.46
same,"Expression level of CHOP in pancreatic cells (relative to GAPDH, untreated=1)",CHOP [1]; steviol 25 μg/mL,2.21
same,"Expression level of CHOP in pancreatic cells (relative to GAPDH, untreated=1)",CHOP [1]; steviol 50 μg/mL,2.25
same,endoplasmic reticulum stress (in words),[2],suppressed endoplasmic reticulum stress in each type of cell in a concentration-dependent manner
same,"Expression level of CHOP in neuronal cells (relative to GAPDH, untreated=1)",CHOP [3]; steviol 6.25 μg/mL,6.61
same,"Expression level of CHOP in neuronal cells (relative to GAPDH, untreated=1)",CHOP [3]; steviol 12.5 μg/mL,6.55
same,"Expression level of CHOP in neuronal cells (relative to GAPDH, untreated=1)",CHOP [3]; steviol 25 μg/mL,6.24
same,"Expression level of CHOP in neuronal cells (relative to GAPDH, untreated=1)",CHOP [3]; steviol 50 μg/mL,5.79
same,cytotoxicity to PC12 cells (in words),PC12 cells (clone HS); 100 μg/mL steviol,no particular cytotoxicity to be noted was found
same,Relative viable cell count (%),PC12 cells (clone HS); steviol 0.01 μg/mL,102.8%
same,Relative viable cell count (%),PC12 cells (clone HS); steviol 0.1 μg/mL,97.0%
same,Relative viable cell count (%),PC12 cells (clone HS); steviol 1 μg/mL,95.3%
same,Relative viable cell count (%),PC12 cells (clone HS); steviol 10 μg/mL,99.6%
same,Relative viable cell count (%),PC12 cells (clone HS); steviol 100 μg/mL,96.9%
same,"Expression level of GRP78 in pancreatic cells (relative to GAPDH, untreated=1)",GRP78 [4]; steviol 6.25 μg/mL,2.10
same,"Expression level of GRP78 in pancreatic cells (relative to GAPDH, untreated=1)",GRP78 [4]; steviol 12.5 μg/mL,2.03
same,"Expression level of GRP78 in pancreatic cells (relative to GAPDH, untreated=1)",GRP78 [4]; steviol 25 μg/mL,1.80
same,"Expression level of GRP78 in pancreatic cells (relative to GAPDH, untreated=1)",GRP78 [4]; steviol 50 μg/mL,1.66
same,"Expression level of GRP78 in neuronal cells (relative to GAPDH, untreated=1)",GRP78 [5]; steviol 6.25 μg/mL,23.31
same,"Expression level of GRP78 in neuronal cells (relative to GAPDH, untreated=1)",GRP78 [5]; steviol 12.5 μg/mL,23.00
same,"Expression level of GRP78 in neuronal cells (relative to GAPDH, untreated=1)",GRP78 [5]; steviol 25 μg/mL,21.84
same,"Expression level of GRP78 in neuronal cells (relative to GAPDH, untreated=1)",GRP78 [5]; steviol 50 μg/mL,20.15
same,adverse effect of endoplasmic reticulum stress on cells (in words),[6],suppressed an adverse effect of endoplasmic reticulum stress on cells in a concentration-dependent manner
same,"Expression level of GRP78 in adipocytes (relative to GAPDH, untreated=1)",GRP78 [7]; steviol 6.25 μg/mL,4.46
same,"Expression level of GRP78 in adipocytes (relative to GAPDH, untreated=1)",GRP78 [7]; steviol 12.5 μg/mL,4.18
same,"Expression level of GRP78 in adipocytes (relative to GAPDH, untreated=1)",GRP78 [7]; steviol 25 μg/mL,4.06
same,"Expression level of GRP78 in adipocytes (relative to GAPDH, untreated=1)",GRP78 [7]; steviol 50 μg/mL,3.54
same,"Expression level of CHOP in adipocytes (relative to GAPDH, untreated=1)",CHOP [8]; steviol 6.25 μg/mL,3.49
same,"Expression level of CHOP in adipocytes (relative to GAPDH, untreated=1)",CHOP [8]; steviol 12.5 μg/mL,3.23
same,"Expression level of CHOP in adipocytes (relative to GAPDH, untreated=1)",CHOP [8]; steviol 25 μg/mL,3.15
same,"Expression level of CHOP in adipocytes (relative to GAPDH, untreated=1)",CHOP [8]; steviol 50 μg/mL,3.17
same,cytotoxicity to neuronal cells (in words),[9]; 100 μg/mL steviol,no particular cytotoxicity to be noted was found
same,Relative viable cell count (%),[9]; steviol 0.01 μg/mL,97.7%
same,Relative viable cell count (%),[9]; steviol 0.1 μg/mL,104.4%
same,Relative viable cell count (%),[9]; steviol 1 μg/mL,93.6%
same,Relative viable cell count (%),[9]; steviol 10 μg/mL,91.4%
same,Relative viable cell count (%),[9]; steviol 100 μg/mL,95.1%
